In BindingDB's records for doi:10.1016/j.bmcl.2007.02.049 (Gnf, 2007):

Biological target: Cathepsin S (Homo sapiens, UniProt P25774)
Assay: Enzyme Inhibition Assay
Conditions: pH 5.5; 37 °C
Procedure: The recombinant human cathepsin enzyme was preincubated with inhibitor for 20 minutes prior to addition of substrate. The substrate hydrolysis was monitored by the increase in fluorescence at an excitation wavelength of 380nm and an emission wavelength of 450 nm on a Gemini EM fluorometer. The reaction progress curve was fitted to the Morrison equation using PlateKi (BioKin) and the apparent inhibition constant was converted to the inhibition constant (Ki) for competitive inhibitors.

Chain of Cathepsin S (P25774 whole entry): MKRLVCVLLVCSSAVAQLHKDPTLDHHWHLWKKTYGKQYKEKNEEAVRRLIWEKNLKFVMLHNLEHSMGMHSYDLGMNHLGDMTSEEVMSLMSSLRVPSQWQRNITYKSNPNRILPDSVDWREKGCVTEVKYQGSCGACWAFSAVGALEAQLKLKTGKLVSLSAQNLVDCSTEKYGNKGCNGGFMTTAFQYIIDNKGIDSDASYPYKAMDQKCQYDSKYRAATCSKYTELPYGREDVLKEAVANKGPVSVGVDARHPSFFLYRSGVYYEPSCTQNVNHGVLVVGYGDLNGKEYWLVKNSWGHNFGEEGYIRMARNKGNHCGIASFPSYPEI

Ki: 20 nM
SMILES: O=C(N[C@@H](CCc1ccccc1)CNc1ccc(OC(F)(F)F)cc1)[C@H](CCC1CCCC1)CC(=O)N1CCOCC1 [(2R)-2-(2-cyclopentylethyl)-4-(morpholin-4-yl)-4-oxo-N-[(2S)-4-phenyl-1-{[4-(trifluoromethoxy)phenyl]amino}butan-2-yl]butanamide]
